# Experimental data as given in a melting point compilation (Tetko et al.).
row,Compound,melting point
1,CC(=O)Nc1ccc2c(OC(C)=O)c(-c3ccccc3)[nH]c2c1,219 °C
2,COC(=N)C1=CC(O)C(O)C(CO)O1 (stereo not given),196 °C
3,Cc1ccc(OCC(=O)O)c(C)c1,141 °C
4,Brc1ccc(Oc2c(Br)c(Br)c(Br)c(Br)c2Br)cc1,184 °C
5,CNNC,-9 °C
6,Cc1cc(Br)cc(C)c1N=C=O,61 °C
7,CCCC(C)(CO)CO,62.5 °C
8,Cc1c(/C=C/c2ccc(Cl)cc2Cl)c2ccccc2n1S(=O)(=O)c1ccccc1,110 °C
9,CCCCCCCCCCCC(=O)N1CC(=O)NC(=O)C1,114 to 116 °C
10,O=C(C=P(c1ccccc1)(c1ccccc1)c1ccccc1)OCc1ccccc1,120 to 127 °C
11,Oc1ccc(-c2ccccc2)cc1Cl,77 °C
12,COc1cc2c(cc1OC)C(C#N)C2 (stereo not given),82 °C
13,c1ccc2c(c1)c1cccc3ccc4cccc2c4c31,180 to 182 °C
14,O=C(C(=O)c1ccc2ccccc2c1)c1ccccc1,87 °C
15,O=C(/C=C/O)CCc1ccccc1,150 °C
16,CCOC(=O)Nc1ccc2nn(C3CCCC3)nc2c1,122 °C
17,C=Cc1ccccc1CC,-75.5 °C
18,c1ccc2c(c1)OCCOCCOCCOCCOc1ccccc1OCCOCCO2,59 to 63 °C
19,O=c1[nH][nH]c(=O)[nH]1,250 °C
20,CC(=O)OCC1C(=O)C2(C)CCC1C2(C)C (stereo not given),148 °C
21,CCCCCCCCCCCCCCCCCCN=C=O,20 °C
22,CSc1ccc(Oc2ccc(C(F)(F)F)cc2[N+](=O)[O-])cc1,41 to 43 °C
23,Oc1c(Cl)cc(Cl)cc1Sc1cc(Cl)cc(Cl)c1O,188 °C

row,Compound,melting point
1,CC(=O)c1c(Cl)cccc1Cl,43 °C
2,CCCCNC(=O)NS(=O)(=O)c1ccc(N)cc1,144 °C
3,CC(C)OC(=O)C1(S(=O)(=O)c2ccc([N+](=O)[O-])cc2)CCCCC1,110 °C
4,CC[C@@]1(O)CC[C@]2(C)[C@H]3CC[C@]4(C)C(O)CC[C@H]4[C@@H]3CC[C@@]2(C)C1 (stereo not given in full),168 to 169 °C
5,NC(=O)NN=Cc1ccccc1,231 °C
6,CCOC(=O)c1c(N)sc2c1CCN(C(=O)OC(C)(C)C)C2,153 °C
7,OCC1(O)OCC(O)C(O)C1O (stereo not given),119 °C
8,COc1cccc(P(c2cccc(OC)c2)c2cccc(OC)c2)c1,115 °C
9,c1ccc2c(c1)-c1ccccc1-2,114 to 115 °C
10,CC(=O)c1ccc(-c2c(Cl)cc(Cl)cc2Cl)o1,108 °C
11,CCCCC(=O)c1ccc(F)cc1,27 °C
12,Cc1ccc(C(O)c2ccccc2O)cc1 (stereo not given),105 °C
13,COc1ccc(C(=O)Cc2c(CCN(C)C)cc3c(c2OC)OCO3)c(C(=O)O)c1OC,138 °C
14,CCCC(=O)OCN1C(=O)NC(c2ccccc2)(c2ccccc2)C1=O,131 °C
15,C=CCN1CCC23c4c5ccc(O)c4OC2C(O)C=CC3C1C5 (stereo not given),208 °C
16,CC(C)(CCCC(C)(C)C(=O)O)C(=O)O,169 to 171 °C
17,O=C1c2ccccc2C(=O)N1c1nc2ccccc2[nH]1,272 to 275 °C
18,CN(C)c1cccc2c(S(=O)(=O)NC3CC(C)(C)N(O)C3(C)C)cccc12 (stereo not given),157 to 161 °C
19,O=[N+]([O-])c1ccc(Cl)cc1O,41 °C
20,Cc1c(C)c2c(c3c1CC3=O)CC2=O,161 °C
21,O=[N+]([O-])c1cccc(C=NO)c1,124 °C
22,Cc1ccccc1NC(=O)c1cnc(C(C)(C)C)cn1,81 °C
23,CCCOC1CCC2C3CCC4=CC(=O)CCC4(C)C3CCC12C (stereo not given),117 to 119 °C

row,Compound,melting point
1,O=C(C=Cc1ccccc1)OCC=Cc1ccccc1,44 °C
2,C=CC(C)(CCC=C(C)C)OC(=O)C(C)C (stereo not given),< 25 °C
3,O=c1nc2ccccc2nc(C(F)(F)F)c1NNc1ccc(Cl)cc1,151 °C
4,Cc1ccc(C2NC(=O)NC(c3ccc(C)cc3)C2(C#N)C(=O)c2ccccc2)cc1 (stereo not given),234 to 235 °C
5,O=[N+]([O-])/C=C/c1cccc(/C=C/[N+](=O)[O-])c1,203 to 204 °C
6,O=C(O)c1nn(Cc2ccc(Cl)cc2Cl)c2ccccc12,207 °C
7,CCC(C)c1ccccc1OC(=O)NC (stereo not given),31.5 °C
8,O=C(O)CC[C@H](NC(=O)OCc1ccccc1)C(=O)O,118 to 121 °C
9,FC(F)C(F)(F)Cl,-117 °C
10,OCC(CO)(CO)CBr,76 °C
11,Cc1cc(C(F)(F)F)n2nc(N)c(/N=N/c3cc(Cl)ccc3Cl)c2n1,215 °C
12,Cc1ncc(S(=O)(=O)C(C)(C)C)c(N)n1,163 to 166 °C
13,CC(=O)Nc1cc(NC(C)=O)c([N+](=O)[O-])cc1[N+](=O)[O-],247 to 248 °C
14,O=C1C=Cc2ccccc2C1=O,136 to 141 °C
15,c1ccc(CC(=NNc2ccccc2)/C(Cc2ccccc2)=N\Nc2ccccc2)cc1,181 °C
16,CN1CCN(c2ncc(Br)c(OCc3ccccc3)n2)CC1,63 °C
17,O[C@@H]1CC2=C(CC=CC2)C[C@@H]1O,139 to 140 °C
18,Cc1cc(C)c(O)cc1O,126 °C
19,c1ccc2cc(Nc3ccc4ccccc4c3)ccc2c1,172 °C
20,CC(C)(C)OC(=O)N1CC(O)C1,40 °C
21,O=c1cc(C(F)(F)F)nc2scc(-c3ccc(Br)cc3)n12,171 °C
22,Cn1c(=O)c(C2=NNC(=O)C2=Cc2c[nH]c3ccccc23)c(O)c2ccccc21,297 °C
23,OCCN1CCN(c2ncc(C(F)(F)F)cc2Cl)CC1,62 to 66 °C

row,Compound,melting point
1,CCOC(=O)C(CCc1ccccc1)NC(C)C(=O)N1Cc2ccccc2CC1C(=O)O (stereo not given),125 °C
2,Nc1c(C(=O)O)cccc1C(F)(F)F,157 to 160 °C
3,FC(F)(F)CCBr,< 25 °C
4,CCCCCCCCCCCCOc1ccccc1OCCCCCCCCCCCC,45 to 48 °C
5,SC1CCCCC1,-30 °C
6,NC(=O)c1c(F)cccc1Cl,141 °C
7,Cc1cc(C(=O)NN)[nH]n1,157 to 158 °C
8,OC1OC2COC(c3ccccc3)OC2C(O)C1O (stereo not given),173 to 174 °C
9,O=Cc1cnc(N2CCCCC2)s1,49 °C
10,Cc1ccc2c(c1[N+](=O)[O-])C(=O)c1c(Cl)c(Cl)c(Cl)c(Cl)c1C2=O,262 °C
11,N#Cc1cccc(C(N)=O)c1,223 °C
12,NC(COc1ccc(C2SCCS2)cc1)=NO,113 to 115 °C
13,O=C(NC(=C(NC(=O)c1ccccc1)c1ccccc1)c1ccccc1)c1ccccc1,100 °C
14,COc1cc(C=CC(=O)O)c([N+](=O)[O-])cc1OC,270 °C
15,C/C(=N\CCO)c1c(O)c2ccccc2n(-c2ccccc2)c1=O,201 to 202 °C
16,COc1ccc(C(=O)Oc2ccc(/C=C/C(=O)c3ccccc3)cc2)cc1,156 °C
17,Cc1cc(O)c(C(=O)O)c(O)c1,176 °C
18,O=C1NCCN1CCO,49 °C
19,N#CC(C(=O)OCc1ccccc1)c1cc(C(F)(F)F)ccc1[N+](=O)[O-] (stereo not given),71 °C
20,CC(O)C(Cl)(Cl)Cl (stereo not given),50.5 °C
21,O=[N+]([O-])c1cccc(-c2nnc3n2NC(/C=C/c2ccccc2)S3)c1 (stereo not given),190 to 192 °C

# Further lines, results first:
row,melting point,Compound
1,215 to 217 °C,[O-][N+]1=C(c2ccccn2)/C(=N\O)c2ccccc21
2,51 to 53 °C,OCC1OC1c1ccccc1 (stereo not given)
3,148 °C,OCc1ccc(I)c(O)c1
4,15.8 °C,C=CCc1ccc(O)cc1
5,93 to 94 °C,Cc1ccc2cc(CBr)ccc2n1
6,175 °C,CN(C(=O)C(Cl)Cl)c1ccc(O)cc1
7,94 °C,Brc1ccc(Br)nc1
8,203 to 204 °C,Cn1c(S)nnc1Cc1nc(-c2cnccn2)no1
9,143 °C,N=C(N)NC(=N)Nc1ccccc1
10,56 °C,Cc1ccc(O)cc1Br
11,56 to 59 °C,CC(=O)c1c(-c2ccc(Cl)cc2)noc1C
12,-86 °C,c1cocn1
13,194 to 196 °C,NC(=O)C1CCN(c2nccc(C(F)(F)F)n2)CC1
14,48 to 51 °C,CCOC(=O)c1cc(-c2cccs2)on1
15,46 to 48 °C,Cc1onc(-c2ccccc2)c1C(=O)CBr
16,99 to 100 °C,COC(=O)c1ccc2nccnc2c1
17,-64 °C,C=Cc1ccc(C)cc1C
18,197 °C,Cc1ccc(C(N)=O)cn1
19,36 °C,CC(=O)OC(C(=O)Cl)c1ccccc1 (stereo not given)
20,257 °C,c1cncc(-c2nc3ccccc3[nH]2)c1

row,melting point,Compound
1,209 °C,COc1cc(Cc2nccc3cc(OC)c(O)cc23)ccc1O
2,196 °C,COc1ccc2sc(S)nc2c1
3,174 to 178 °C,N#Cc1coc2ccccc2c1=O
4,216 °C,Nc1cc(C(=O)O)cc([N+](=O)[O-])c1
5,146 to 148 °C,CC1(C)CC(=O)c2cc(-c3ccccc3)n(Cc3cccnc3)c2C1
6,278 to 281 °C,O=C(O)c1ccc(N2CCOCC2)cc1
7,41 °C,CC(=O)N[Si](C)(C)C
8,250 °C,O=C(O)c1ccnc(C(=O)O)c1C(=O)O
9,198 °C,NC(=O)n1c(C2CCCCC2)nn(-c2ccccc2)c1=O
10,222 °C,Cc1c(C(=O)c2c[nH]n(C)c2=O)ccc(S(C)(=O)=O)c1C1=NOCC1
11,120 to 122 °C,NC(=S)c1ccccc1N
12,107 °C,O=C1OC(=O)c2cc(Br)ccc21
13,139 to 141 °C,Cc1n[nH]c(C)c1Oc1ccc(Cl)cc1
14,68 to 70 °C,OCc1ccc(Cn2cncn2)cc1
15,35 °C,Cc1nc(-c2ccccc2)no1
16,73 to 75 °C,Nc1ccc(I)cc1Cl
17,173 to 175 °C,NNC(=O)c1ccc(I)cc1
18,80 to 84 °C,Clc1ccc(-c2cc[nH]n2)cc1
19,101 to 103 °C,CSc1cc(-c2ccc(F)cc2)n[nH]1
20,83 °C,Cc1cc(Br)cc([N+](=O)[O-])c1
